Data from article PMC5519977, “Redox-dependent substrate-cofactor interactions in the Michaelis-complex of a flavin-dependent oxidoreductase” (Nature Communications, 2017).

molecular target: T1, xenobiotic reductase A (XenA) (Pseudomonas putida, UniProt Q3ZDM6); assay: stopped-flow reoxidation of reduced enzyme; format: biochemical; details: reduced enzyme (FMNH-), anoxic, 50 mM Tris/HCl pH 8.0, 25 °C
T1 construct: recombinant in E. coli Rosetta (DE3), pET28a; N-terminal His-tag removed with TEV protease; reconstituted with FMN
T1 sequence (Q3ZDM6 entry or part of it): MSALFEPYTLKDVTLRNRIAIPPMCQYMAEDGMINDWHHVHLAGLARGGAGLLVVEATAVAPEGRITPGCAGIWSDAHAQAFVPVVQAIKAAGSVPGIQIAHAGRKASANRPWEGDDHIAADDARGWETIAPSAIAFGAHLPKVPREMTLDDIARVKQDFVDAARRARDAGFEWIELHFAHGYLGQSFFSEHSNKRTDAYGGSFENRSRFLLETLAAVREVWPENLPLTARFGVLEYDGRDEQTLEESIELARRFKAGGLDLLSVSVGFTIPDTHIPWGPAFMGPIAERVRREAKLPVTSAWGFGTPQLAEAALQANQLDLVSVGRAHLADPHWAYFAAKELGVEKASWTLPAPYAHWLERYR

Structure (SMILES)	dissociation constant
O=c1ccc2cccc(O)c2o1 [8-hydroxycoumarin]	dissociation constants of the reduced Michaelis complexes for the respective substrates
O=c1ccc2ccc(O)cc2o1 [7-hydroxycoumarin]	dissociation constants of the reduced Michaelis complexes for the respective substrates
O=c1ccc2ccccc2o1 [coumarin]	dissociation constants of the reduced Michaelis complexes for the respective substrates
